In patent US20060205826A1, “Method of using carotenoids in the prevention of cognitive decline and for other neuroprotection functions” (priority 2005, published 2006):
“Also recorded” adds a separate entry of the source.

Assays:
[1] = system: hippocampal stem cells; experiment: Hippocampal neurogenesis (BrdU immunostaining, cell counting) in diabetic mice; assay type: in vivo; conditions: two weeks after the induction of diabetes, preliminary data
Source text: All animals were killed with a barbiturate overdose; each group had n>8. After intracardial perfusion with 4% paraformaldehyde, brains were cut into 40-μm-thick sections (200 μm, 1 every sixth section, used for electron microscopy analysis) with a vibratome (Leica VT100M).
Sections were immersed free-floating in 0.1 M phosphate buffer plus 0.05 % sodium azide. Twenty-four-well plates were used to keep the sections separate and preserve the order of the series. Sections that were 40 μm thick were used for cell counting. Incubations were performed in 0.1 M phosphate buffer with 0.2% Triton X-100 and 10% normal goat serum. Sections were blocked by incubating for 30 min in a solution of 3% hydrogen peroxide for diaminobenzidine (Sigma) staining. BrdU immunohistochemistry was preceded with DNA denaturation of 25 min of incubation in 2 M HCl at 37° C. The primary antibodies used were 1:200 mouse anti-BrdU (Dako). […]
Cell Counting. BrdU-positive cells were counted in sections spaced 400 μm apart by using a Nikon Eclipse E200 with a Nikon 40X Plan objective (0.65 numerical aperture) throughout the granule cell layer. […] Data were expressed as total, for the whole structure, and also subanalyzed in three regions: anterior, middle, and posterior.

[2] = system: alloxan diabetic mice; experiment: Morris water maze (spatial learning and memory) in diabetic mice; assay type: in vivo
Protocol: Male albino mice were used throughout the study, housed in a environmentally regulated room on a dark-light cycle of 12 hours with free access to food and water. Principles of laboratory animal care (NIH publication no. 85-23, revised 1985) were followed, as well as specific Spanish regulations. Animals were made diabetic with a single subcutaneous injection of 200 mg alloxan/kg body weight (66 mg/ml) in 0.1 M citrate buffer, pH 4.5, at day 0 of the experiment. Control mice were injected with the same volume of vehicle also at day 0 of the experiment. Mice were identified as diabetic on the basis of blood glucose levels (higher than 16 mM at least 4 days after alloxan treatment). Animals were divided into subgroups as required by the experiment (control, control+lutein, diabetic, diabetic+lutein, diabetic+insulin, diabetic+insulin+lutein). Lutein was administered daily at a dose of 0.2 mg/kg p.o since day 4 after alloxan or citrate buffer injection until the end of the experiment. […] Glycated hemoglobin was determined in blood samples obtained by heart puncture immediately before killing the animals. […] We measured the duration from the time the mouse was dropped into the maze to the time the mouse climbed onto the platform (latency time). The latency was recorded manually using a stopwatch. […] The percentage of time spent in each of the pool quadrants was also recorded.

[3] = system: GPx activity; conditions: diabetic animals; Miranda et al., 2004; cited from earlier work
[4] = system: alloxan diabetic mice; conditions: diabetic animals; Miranda et al., 2004; cited from earlier work
[5] = system: GPx activity; experiment: GPx activity in eye and hippocampus homogenate of diabetic mice; assay type: in vivo
Protocol: Male albino mice were used throughout the study, housed in a environmentally regulated room on a dark-light cycle of 12 hours with free access to food and water. Principles of laboratory animal care (NIH publication no. 85-23, revised 1985) were followed, as well as specific Spanish regulations. Animals were made diabetic with a single subcutaneous injection of 200 mg alloxan/kg body weight (66 mg/ml) in 0.1 M citrate buffer, pH 4.5, at day 0 of the experiment. Control mice were injected with the same volume of vehicle also at day 0 of the experiment. Mice were identified as diabetic on the basis of blood glucose levels (higher than 16 mM at least 4 days after alloxan treatment). Animals were divided into subgroups as required by the experiment (control, control+lutein, diabetic, diabetic+lutein, diabetic+insulin, diabetic+insulin+lutein). […] Insulin treated animals were injected daily with 500 mU/g body weight since day 4 until the end of the experiment. Mice were killed by cervical dislocation on day 14, and hippocampus and retina were removed and homogenized in pre-chilled 0.2 M potassium phosphate buffer, pH 7.0. These homogenates were used to assay protein, GPx activity and MDA and GSH concentrations. Samples were kept frozen (−80° C.) until biochemical assays were performed. Blood was taken from the tail vein daily to assay blood glucose levels. Glycated hemoglobin was determined in blood samples obtained by heart puncture immediately before killing the animals. GPx activity was assayed as reported by Lawrence et al. (1978) towards hydrogen peroxide. The disappearance of NADPH was followed spectrophotometrically at 340 nm. The reaction mixture consisted of 240 mU/ml of glutathione disulfide reductase, 1 mM GSH, 0.15 mM NADPH in 0.1 M potassium phosphate buffer, pH 7.0, containing 1 mM EDTA and 1 mM sodium azide; 50 μl sample were added to this mixture and allowed to equilibrate at 37° C. for 3 min. reaction was started by the addition of 1.5 mM hydrogen peroxide to adjust the final volume of the assay mixture to 1 ml.

## CC1=C[C@H](O)CC(C)(C)[C@H]1/C=C/C(C)=C/C=C/C(C)=C/C=C/C=C(C)/C=C/C=C(C)/C=C/C1=C(C)C[C@@H](O)CC1(C)C [Lutein]
[1]
  proliferation of hippocampal stem cells: able to prevent the impairment in proliferation; also recorded: able to restore this alteration
[2]
  escape latencies in the Morris water maze: diminished
[3]
  glutathione peroxidase activity of the retinas: restored
[4]
  b-wave amplitude of the electroretinogram: restored
[5]; eye homogenate without lens, lutein 100 mg/kg p.o. or insulin 500 mU/g s.c. on days 4-13
  retinal GPx activity: protected
[5]; lutein 0.2 mg/kg p.o. or insulin 500 mU/g s.c. on days 4-13
  GPx activity in hippocampus homogenate: restored
